Values quoted from earlier work as cited in patent US20250127701A1, “Cosmetical use of a topically applicable rinse-of composition (RC)” (Wella Germany GmbH, priority 2023, published 2025).

Columns and labels:
[1] = target: T1, olfactory receptor OR2AT4 (Homo sapiens, UniProt A6NND4); settings: receptor expressed in the epithelium of human hair follicles
T1 sequence (A6NND4 1-320): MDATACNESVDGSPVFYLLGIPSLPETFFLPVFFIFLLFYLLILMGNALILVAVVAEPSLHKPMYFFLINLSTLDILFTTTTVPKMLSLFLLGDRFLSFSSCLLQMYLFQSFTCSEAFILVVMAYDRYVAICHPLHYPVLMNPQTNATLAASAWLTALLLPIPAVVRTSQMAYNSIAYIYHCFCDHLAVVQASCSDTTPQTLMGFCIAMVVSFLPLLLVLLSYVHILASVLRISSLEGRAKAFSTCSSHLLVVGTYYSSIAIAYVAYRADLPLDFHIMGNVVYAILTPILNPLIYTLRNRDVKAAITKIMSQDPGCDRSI

[2] = test system: hair shaft, hair matrix keratinocytes; settings: studies have shown

| SMILES | Effect on the olfactory receptor OR2AT4 [1] | Effect on anagen duration [2] | Effect on hair shaft elongation [2] | Effect on proliferation of hair matrix keratinocytes [2] |
| --- | --- | --- | --- | --- |
| CC1=CCC(CCC(C)C(C)O)C1(C)C (stereo not shown) [Sandal pentanol, 3-methyl-5-(2,2,3-trimethylcyclopent-3-en-1-yl)pentan-2-ol] | stimulatory effect |  |  |  |
| Cn1c(=O)c2c(ncn2C)n(C)c1=O [caffeine, 1,3,7-trimethylxanthine] |  | prolonges anagen duration | enhances the hair shaft elongation | stimulates the proliferation of hair matrix keratinocytes |
